Experimental data from patent publication US10159676B2, “Induction of tumor hypoxia for cancer therapy” (Virginia Commonwealth University, priority 2008, dated 2018).

How the values were obtained:
[1] = tested on: UCI-101 tumor xenografts; assay: Tumor xenograft size after multiple dosing (days 8, 10, 12); format: in vivo, nude mice; details: ip on days 8, 10 and 12; stilbene 5c 50 mg/kg, tirapazamine 60 mg/kg; day 14; 6 mice per group
Description: The long and short axes of tumor were measured to calculate tumor size and plotted against days. Each treatment group contains 6 mice.
Mice were then sacrificed at day 14. The long and short axes of tumors were measured to calculate tumor size and plotted against days. Each treatment group contains 6 mice.
Tumor cell lines used in this study include UCI-101 ovarian cancer cells and Hep3B hepatocellular carcinoma cells. Cells are grown in IMEM and DMEM, respectively, supplemented with 10% fetal bovine serum, glutamine, and penicillium/streptomycin in 5% CO2 humidified environment. When cells were grown to 80% confluent, cells were harvested with 1% trypsin and washed with phosphate-buffered saline three times before injected subcutaneously into nude mice. For mouse xenograft studies, 2×10^6 tumor cells were injected in the back subcutaneously. Nude mice were purchased from NCI Development Therapeutic Program as described. Tumor size was monitored by long and short axes (a and b, respectively) by a caliber and tumor volume was calculated by the formula ab^2/2. […] Treatment with AAA bevacizumab was done by tail vein injection at a dose of 10 mg/kg.
Next we measured the size of tumor xenografts after multiple dosing. Nude mice were injected subcutaneously with UCI-101 cells and tumor became visible after day 7. […] Tumor xenografts were measured and sizes are plotted in FIG. 7.

[2] = Weight loss in multiple dosing xenograft study; format: in vivo, nude mice; details: day 14; tirapazamine 60 mg/kg ip days 8, 10, 12 (alone or with stilbene 5c 50 mg/kg)
Description: Next we measured the size of tumor xenografts after multiple dosing. Nude mice were injected subcutaneously with UCI-101 cells and tumor became visible after day 7. Treatment was administered by intraperitoneal injection on days 8, 10 and 12 with 6 mice in each group. […] […]. […].

[3] = tested on: hypoxic cells; details: cited from earlier work
[4] = in vivo; cited from earlier work
[5] = tested on: stage IV non-small cell lung cancer; details: cited from earlier work
[6] = tested on: tumor; details: tirapazamine alone given at 70 mg/kg; cited from earlier work
[7] = cited from earlier work
[8] = tested on: UCI-101 tumor xenograft; assay: Tumor growth, stilbene 5c with or without bevacizumab; format: in vivo, nude mice; details: stilbene 5c 20 mg/kg/day Monday to Friday for two weeks; bevacizumab 10 mg/kg twice a week for 5 doses
Description: FIG. 4. Efficacy of stilbene 5c in vivo and enhanced effect by bevacizumab. Nude mice were injected with UCI-101 cells subcutaneously and mice are treated with stilbene 5c at 20 mg/kg/day Monday-Friday with or without bevacizumab 10 mg/kg twice a week. Tumor volume was calculated by the long and short axes. Each group contains 8 mice and the average tumor volumes and standard deviations were plotted against days.
Tumor cell lines used in this study include UCI-101 ovarian cancer cells and Hep3B hepatocellular carcinoma cells. Cells are grown in IMEM and DMEM, respectively, supplemented with 10% fetal bovine serum, glutamine, and penicillium/streptomycin in 5% CO2 humidified environment. When cells were grown to 80% confluent, cells were harvested with 1% trypsin and washed with phosphate-buffered saline three times before injected subcutaneously into nude mice. For mouse xenograft studies, 2×10^6 tumor cells were injected in the back subcutaneously. Nude mice were purchased from NCI Development Therapeutic Program as described. Tumor size was monitored by long and short axes (a and b, respectively) by a caliber and tumor volume was calculated by the formula ab^2/2. […]. Treatment with AAA bevacizumab was done by tail vein injection at a dose of 10 mg/kg.
Next we used ovarian cancer UCI101 cells to study the in vivo efficacy of stilbene 5c We first administered stilbene 5c with intraperitoneal injection at 25 mg/kg three times a week. Tumor volume was calculated by measuring the long and short axes. […] The failure could be due to the possibility that intermittent dosing leaves a viable rim of tumor, which survives the treatment of VDAs by getting nutritional and blood support from surrounding normal vasculature. When treatment with VDAs is stopped, the viable rim of tumor grows quickly. Tumor vasculature recovers quickly by recruitment of the mobilized endothelial progenitor cells. Based on this rationale, we combined stilbene 5c with bevacizumab, which was used to neutralize VEGF secreted by UCI-101 tumor cells. […]

[9] = in vivo; cited from earlier work; remark: listed apart in the source
[10] = phase I, intravenous every three weeks

| Molecule | size of tumor compared with the control [1] | weight loss [2] [%] | greater toxicity to hypoxic cells compared to well-oxygenated cells [3] | potential side effects in animal studies [4] | response rate, overall survival, or progression free survival ([5]; tirapazamine 260-330 mg/m^2 added to carboplatin and paclitaxel vs placebo) | systemic toxicity ([5]; tirapazamine added to carboplatin and paclitaxel vs placebo) | tumor growth suppression [6] | tolerated dose, tirapazamine by itself ([7]; phase I and phase II trials) | dose with dose limiting toxicities (reversible ototoxicity and transient visual abnormality) [7, 10] | maximum tolerated dose (MTD) [7, 10] [mg/m^2] | tumor growth suppression [8] | half-life [9] |
| --- | --- | --- | --- | --- | --- | --- | --- | --- | --- | --- | --- | --- |
| Nc1n[n+]([O-])c2ccccc2[n+]1[O-] [tirapazamine, 3-amino-1,2,4-benzotriazine-1,4-di-N-oxide] | about 50% | 20 | 15-200 fold | bone marrow toxicity, necrosis of the olfactory nerve, and retinal degeneration | no benefit | increased systemic toxicity | no effect | up to 390 mg/m^2 | above 330 mg/m^2 | 390 | – | – |
| bevacizumab: a monoclonal antibody against vascular endothelial growth factor (VEGF) [reference compound] | – | – | – | – | – | – | – | – | – | – | about 25% | over 7 days |
